# Reference: patent US20230044304A1, “Nitric oxide generation, dilution, analysis, and topical application compositions, systems, apparatus and methods” (SYK Technologies LLC, priority 2010, published 2023)
# Entries after “also recorded” stand apart in the source; their conditions may differ.
# Legend:
# [1] = tested on: bacteria on skin of hands; test: Hand exposed to nitric oxide gas in a bag versus DIAL antibacterial soap, zone dilution plating; format: in vivo, human
# From the text: An experiment 46 used to determine the anti-microbial effectiveness of nitric oxide is illustrated in FIG. 72. In the experiment, five volunteers were selected 48. From a first hand of each volunteer, a technician using sterile gloves collected 50 a sample. This was accomplished by rubbing the back of the volunteer's hand with a sterile cotton collection swab for ten seconds. The swab was then applied 52 to a nutrient agar petri dish using the five corner or zone dilution method.
# The five corner or zone dilution method involves mechanically diluting bacteria on a streak (blood agar) plate by sequentially spreading the bacteria across the plate in each of five zones. As the concentration of bacteria increases so do the number of zones containing bacteria. Bacteria on agar plate become visible as distinct circular colonies. Each colony represents an individual cell which has divided repeatedly to form a patch. The number of bacteria can be estimated by counting the number of patches or how far the bacteria is diluted by streaking it on the agar plate through the five zones.
# After the sample was collected 50, the first hand was cleaned 54 using nitric oxide. This was done by placing the hand of the volunteer into a one-gallon plastic freezer bag. The bag was then inflated with nitric oxide through tubing attached to a portable nitric oxide generator. […]
# [2] = tested on: bacteria on a surface, such as a person's skin; test: Nitric oxide dose required to kill bacteria on a surface
smiles,measurement,setting,value
[N]=O [nitric oxide],bacterial colony count compared with washing with antibacterial soap,"[1]; 1,000 ppm nitric oxide for fifteen minutes versus DIAL antibacterial soap for 2 minutes, five volunteers",superior to soaps; also recorded: lower bacterial colony count
same,colony counts of bacteria exposed to nitric oxide,[1]; experiments by applicant on healthy skin,substantial reductions in colony counts
same,dose required to kill bacteria on a surface,[2],≥ 320 ppm
